Data: paper PMC8750630, “Novel Molecular Targets for Hepatocellular Carcinoma” (Cancers, 2021)

test system: CD8+ T cells; test: pMHC multimer staining of PBMCs for epitope-specific CD8+ T cells; assay type: cell-based, human; conditions: HLA-A*02:01 multimers, PBMCs from 4 HCC patients and 3 healthy donors, average
Experimental: pMHC complexes were generated by combining purified disulfide-stabilized HLA A*0201 monomer (100 μg/mL) with 100 μM peptide for 30 min in PBS at room temperature. Then, pMHC complexes were centrifuged for 5 min at 3300× g to sediment any aggregated MHC molecules. For each 100 μL pMHC, 9.02 μL (0.2 mg/mL stock, SA-PE (BioLegend, 405204), SA-APC (BioLegend, 405207), SA-PE/Cy7 (BioLegend, 405206), SA-PE-CF594 (BD, 562284)), or 18.04 μL (0.1 mg/mL stock, SA-BV421 (BioLegend, 405226), SA-BV650 (BioLegend, 405231) streptavidin conjugate was added and incubated for 30 min on ice. D-biotin (Sigma-Aldrich, St.Louis, MO, USA) was added at a final concentration of 25 μM to block any free binding sites and multimers were stored at −20 °C with 5% glycerol and 0.5% BSA. To stain for T-cell reactivity, PBMCs from 4 HCC patients and 3 healthy donors (2–5 × 10^6) were incubated with a pool of pMHC multimers (3 μL/multimer) and dasatinib (50 nM final, LC laboratories, D-3307) for 15 min at 37 °C. Cells were then stained with antibodies CD3-FITC (1:40, BD, 345763) and CD8-BV480 (1:100, BD, 566121) and LIVE/DEAD Fixable Near-IR (1:1000, Invitrogen, Waltham, MA, USA L10119) for 30 min on ice and washed twice in FACS buffer (PBS + 2% FCS). Gating for CD3^+/CD8^+ T cells was performed on live cells, and binding to pMHCs was assessed by measuring specific fluorescence associated with each individual pMHC. Samples were acquired on a flow cytometer (LSRFortessa, BD, Franklin Lakes, NJ, USA).

Row | Sequence | percentage of CD8+ T cells reacting with the peptide [%]
1 | ALLALTSAV | 0.88
2 | MLAGNEFQV | 0.32
3 | MLAGNAFTA | 0.46
4 | LLGPQLVLL | 0.55
